Source: patent US20240158446A1, “CYCLIC COMPOUND HAVING SELECTIVE INHIBITORY ACTION ON KRAS OVER HRAS AND NRAS” (CHUGAI SEIYAKU KABUSHIKI KAISHA, priority 2021, published 2024)
Where a SMILES comes first, the peptide text is derived from it. Bridges are numbered along the chain shown (N, C = ends). [ ]: non-standard residue; d: D form. hPhe(3-Cl-4-CF3) = N[C@@H](CCc1ccc(C(F)(F)F)c(Cl)c1)C(=O)O; NPrPhe(4-CF3) = CCCN[C@@H](Cc1ccc(C(F)(F)F)cc1)C(=O)O; NMeGly(cPent) = CN[C@H](C(=O)O)C1CCCC1; Pro(4,4-F2) = O=C(O)[C@@H]1CC(F)(F)CN1; Hyp = O=C(O)[C@@H]1C[C@@H](O)CN1; NMeD = CN[C@@H](CC(=O)O)C(=O)O; NMeL = CN[C@@H](CC(C)C)C(=O)O; Ac5c = NC1(C(=O)O)CCCC1; Ac4c = NC1(C(=O)O)CCC1; NEtG = CCNCC(=O)O; Sar = CNCC(=O)O

What was measured:
[1] = biological target: GDP-bound NRAS wild-type protein (Homo sapiens, UniProt P01111); experiment: Binding to NRAS by surface plasmon resonance (SPR), Single Cycle Kinetics; conditions: SPR, GDP-bound NRAS wild-type protein vs GDP-bound KRAS wild-type protein
[2] = biological target: GDP-bound HRAS wild-type protein (Homo sapiens, UniProt P01112); experiment: Binding to HRAS by surface plasmon resonance (SPR), Single Cycle Kinetics; conditions: SPR, GDP-bound HRAS wild-type protein vs GDP-bound KRAS wild-type protein
[3] = biological target: GDP-bound KRAS wild-type protein (Homo sapiens, UniProt P01116); experiment: Binding to KRAS by surface plasmon resonance (SPR), Single Cycle Kinetics; conditions: SPR Single Cycle Kinetics, GDP-bound KRAS wild-type protein, 1:1 binding model; read-out: KRAS KD
GDP-bound KRAS wild-type protein, sequence (P01116 whole entry): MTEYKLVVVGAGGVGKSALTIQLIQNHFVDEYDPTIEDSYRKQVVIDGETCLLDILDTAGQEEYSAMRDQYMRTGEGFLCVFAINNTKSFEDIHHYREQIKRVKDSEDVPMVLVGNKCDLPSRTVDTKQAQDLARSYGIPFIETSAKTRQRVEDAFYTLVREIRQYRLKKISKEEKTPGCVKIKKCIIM

GDP-bound HRAS wild-type protein, sequence (P01112 whole entry): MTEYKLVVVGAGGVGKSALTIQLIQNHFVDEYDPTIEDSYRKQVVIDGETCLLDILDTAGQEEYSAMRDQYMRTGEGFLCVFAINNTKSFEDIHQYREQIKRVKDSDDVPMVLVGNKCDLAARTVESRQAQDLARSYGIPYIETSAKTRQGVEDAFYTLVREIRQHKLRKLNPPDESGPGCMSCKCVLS
GDP-bound NRAS wild-type protein, sequence (P01111 whole entry): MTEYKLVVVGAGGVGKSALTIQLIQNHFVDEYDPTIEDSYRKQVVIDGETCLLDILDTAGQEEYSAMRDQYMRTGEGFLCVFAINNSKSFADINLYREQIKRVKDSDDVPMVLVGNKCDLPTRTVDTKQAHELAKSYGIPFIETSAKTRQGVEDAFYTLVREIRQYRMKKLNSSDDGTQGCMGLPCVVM

Structure (SMILES): CCCN1C(=O)CN(C)C(=O)CN(C)C(=O)[C@H]([C@@H](C)CC)NC(=O)[C@H](CC(C)C)N(C)C(=O)C[C@@H](C(=O)N(C)C)N(C)C(=O)[C@H](C2CCCC2)N(C)C(=O)C2(CCCC2)NC(=O)[C@@H]2C[C@@H](OCC)CN2C(=O)[C@H](CCc2ccc(C(F)(F)F)c(Cl)c2)NC(=O)CN(C)C(=O)[C@@H]1Cc1ccc(C(F)(F)F)cc1 [PP0415] ([NMeL]I[Sar][Sar][NPrPhe(4-CF3)][Sar][hPhe(3-Cl-4-CF3)][Hyp](Et)[Ac5c][NMeGly(cPent)][NMeD]-NMe2; lactam N-11)
- NRAS/KRAS (ratio of KD value with respect to NRAS to KD value with respect to KRAS) [1]: B (a compound having 3 or more and less than 10 is denoted as B)
- HRAS/KRAS (ratio of KD value with respect to HRAS to KD value with respect to KRAS) [2]: B (a compound having 3 or more and less than 10 is denoted as B)
- Kd [3]: 0.018 nM

Structure (SMILES): CCCN1C(=O)CN(C)C(=O)CN(C)C(=O)[C@H]([C@@H](C)CC)NC(=O)[C@H](CC(C)C)N(C)C(=O)C[C@@H](C(=O)N(C)C)N(C)C(=O)[C@H](C2CCCC2)N(C)C(=O)C2(CCC2)NC(=O)[C@@H]2C[C@@H](OCC)CN2C(=O)[C@H](CCc2ccc(C(F)(F)F)c(Cl)c2)NC(=O)CN(C)C(=O)[C@@H]1Cc1ccc(C(F)(F)F)cc1 [PP0416] ([NMeL]I[Sar][Sar][NPrPhe(4-CF3)][Sar][hPhe(3-Cl-4-CF3)][Hyp](Et)[Ac4c][NMeGly(cPent)][NMeD]-NMe2; lactam N-11)
- NRAS/KRAS (ratio of KD value with respect to NRAS to KD value with respect to KRAS) [1]: B (a compound having 3 or more and less than 10 is denoted as B)
- HRAS/KRAS (ratio of KD value with respect to HRAS to KD value with respect to KRAS) [2]: C (A compound having a KD ratio of 0.1 or more and less than 3 is denoted as C)
- Kd [3]: 0.027 nM

Structure (SMILES): CCCN1C(=O)CN(C)C(=O)CNC(=O)[C@H]([C@@H](C)CC)NC(=O)[C@H](CC(C)C)N(C)C(=O)C[C@@H](C(=O)N(C)C)N(C)C(=O)[C@H](C2CCCC2)N(C)C(=O)C2(CCCC2)NC(=O)[C@@H]2CCCN2C(=O)[C@H](CCc2ccc(C(F)(F)F)c(Cl)c2)NC(=O)CN(C)C(=O)[C@@H]1Cc1ccc(C(F)(F)F)cc1 [PP0417] ([NMeL]IG[Sar][NPrPhe(4-CF3)][Sar][hPhe(3-Cl-4-CF3)]P[Ac5c][NMeGly(cPent)][NMeD]-NMe2; lactam N-11)
- NRAS/KRAS (ratio of KD value with respect to NRAS to KD value with respect to KRAS) [1]: B (a compound having 3 or more and less than 10 is denoted as B)
- HRAS/KRAS (ratio of KD value with respect to HRAS to KD value with respect to KRAS) [2]: C (A compound having a KD ratio of 0.1 or more and less than 3 is denoted as C)
- Kd [3]: 0.074 nM

Structure (SMILES): CCCN1C(=O)CN(C)C(=O)CNC(=O)[C@H]([C@@H](C)CC)NC(=O)[C@H](CC(C)C)N(C)C(=O)C[C@@H](C(=O)N(C)C)N(C)C(=O)[C@H](C2CCCC2)N(C)C(=O)C2(CCC2)NC(=O)[C@@H]2CCCN2C(=O)[C@H](CCc2ccc(C(F)(F)F)c(Cl)c2)NC(=O)CN(C)C(=O)[C@@H]1Cc1ccc(C(F)(F)F)cc1 [PP0418] ([NMeL]IG[Sar][NPrPhe(4-CF3)][Sar][hPhe(3-Cl-4-CF3)]P[Ac4c][NMeGly(cPent)][NMeD]-NMe2; lactam N-11)
- NRAS/KRAS (ratio of KD value with respect to NRAS to KD value with respect to KRAS) [1]: B (a compound having 3 or more and less than 10 is denoted as B)
- HRAS/KRAS (ratio of KD value with respect to HRAS to KD value with respect to KRAS) [2]: C (A compound having a KD ratio of 0.1 or more and less than 3 is denoted as C)
- Kd [3]: 0.074 nM

Structure (SMILES): CCCN1C(=O)CN(C)C(=O)CNC(=O)[C@H]([C@@H](C)CC)NC(=O)[C@H](CC(C)C)N(C)C(=O)C[C@@H](C(=O)N(C)C)N(C)C(=O)[C@H](C2CCCC2)N(C)C(=O)C2(CCCC2)NC(=O)[C@@H]2CC(F)(F)CN2C(=O)[C@H](CCc2ccc(C(F)(F)F)c(Cl)c2)NC(=O)CN(C)C(=O)[C@@H]1Cc1ccc(C(F)(F)F)cc1 [PP0419] ([NMeL]IG[Sar][NPrPhe(4-CF3)][Sar][hPhe(3-Cl-4-CF3)][Pro(4,4-F2)][Ac5c][NMeGly(cPent)][NMeD]-NMe2; lactam N-11)
- NRAS/KRAS (ratio of KD value with respect to NRAS to KD value with respect to KRAS) [1]: B (a compound having 3 or more and less than 10 is denoted as B)
- HRAS/KRAS (ratio of KD value with respect to HRAS to KD value with respect to KRAS) [2]: C (A compound having a KD ratio of 0.1 or more and less than 3 is denoted as C)
- Kd [3]: 0.067 nM

Structure (SMILES): CCCN1C(=O)CN(C)C(=O)CNC(=O)[C@H]([C@@H](C)CC)NC(=O)[C@H](CC(C)C)N(C)C(=O)C[C@@H](C(=O)N(C)C)N(C)C(=O)[C@H](C2CCCC2)N(C)C(=O)C2(CCC2)NC(=O)[C@@H]2CC(F)(F)CN2C(=O)[C@H](CCc2ccc(C(F)(F)F)c(Cl)c2)NC(=O)CN(C)C(=O)[C@@H]1Cc1ccc(C(F)(F)F)cc1 [PP0420] ([NMeL]IG[Sar][NPrPhe(4-CF3)][Sar][hPhe(3-Cl-4-CF3)][Pro(4,4-F2)][Ac4c][NMeGly(cPent)][NMeD]-NMe2; lactam N-11)
- NRAS/KRAS (ratio of KD value with respect to NRAS to KD value with respect to KRAS) [1]: B (a compound having 3 or more and less than 10 is denoted as B)
- HRAS/KRAS (ratio of KD value with respect to HRAS to KD value with respect to KRAS) [2]: C (A compound having a KD ratio of 0.1 or more and less than 3 is denoted as C)
- Kd [3]: 0.034 nM

Structure (SMILES): CCCN1C(=O)CN(C)C(=O)CNC(=O)[C@H]([C@@H](C)CC)NC(=O)[C@H](CC(C)C)N(C)C(=O)C[C@@H](C(=O)N(C)C)N(C)C(=O)[C@H](C2CCCC2)N(C)C(=O)C2(CCCC2)NC(=O)[C@@H]2C[C@@H](OCC)CN2C(=O)[C@H](CCc2ccc(C(F)(F)F)c(Cl)c2)NC(=O)CN(C)C(=O)[C@@H]1Cc1ccc(C(F)(F)F)cc1 [PP0421] ([NMeL]IG[Sar][NPrPhe(4-CF3)][Sar][hPhe(3-Cl-4-CF3)][Hyp](Et)[Ac5c][NMeGly(cPent)][NMeD]-NMe2; lactam N-11)
- NRAS/KRAS (ratio of KD value with respect to NRAS to KD value with respect to KRAS) [1]: B (a compound having 3 or more and less than 10 is denoted as B)
- HRAS/KRAS (ratio of KD value with respect to HRAS to KD value with respect to KRAS) [2]: C (A compound having a KD ratio of 0.1 or more and less than 3 is denoted as C)
- Kd [3]: 0.033 nM

Structure (SMILES): CCCN1C(=O)CN(C)C(=O)CNC(=O)[C@H]([C@@H](C)CC)NC(=O)[C@H](CC(C)C)N(C)C(=O)C[C@@H](C(=O)N(C)C)N(C)C(=O)[C@H](C2CCCC2)N(C)C(=O)C2(CCC2)NC(=O)[C@@H]2C[C@@H](OCC)CN2C(=O)[C@H](CCc2ccc(C(F)(F)F)c(Cl)c2)NC(=O)CN(C)C(=O)[C@@H]1Cc1ccc(C(F)(F)F)cc1 [PP0422] ([NMeL]IG[Sar][NPrPhe(4-CF3)][Sar][hPhe(3-Cl-4-CF3)][Hyp](Et)[Ac4c][NMeGly(cPent)][NMeD]-NMe2; lactam N-11)
- NRAS/KRAS (ratio of KD value with respect to NRAS to KD value with respect to KRAS) [1]: B (a compound having 3 or more and less than 10 is denoted as B)
- HRAS/KRAS (ratio of KD value with respect to HRAS to KD value with respect to KRAS) [2]: B (a compound having 3 or more and less than 10 is denoted as B)
- Kd [3]: 0.017 nM

Structure (SMILES): CCCN1C(=O)CN(C)C(=O)CN(CC)C(=O)[C@H]([C@@H](C)CC)NC(=O)[C@H](CC(C)C)N(C)C(=O)C[C@@H](C(=O)N(C)C)N(C)C(=O)[C@H](C2CCCC2)N(C)C(=O)C2(CCC2)NC(=O)[C@@H]2CCCN2C(=O)[C@H](CCc2ccc(C(F)(F)F)c(Cl)c2)NC(=O)CN(C)C(=O)[C@@H]1Cc1ccc(C(F)(F)F)cc1 [PP0424] ([NMeL]I[NEtG][Sar][NPrPhe(4-CF3)][Sar][hPhe(3-Cl-4-CF3)]P[Ac4c][NMeGly(cPent)][NMeD]-NMe2; lactam N-11)
- NRAS/KRAS (ratio of KD value with respect to NRAS to KD value with respect to KRAS) [1]: B (a compound having 3 or more and less than 10 is denoted as B)
- HRAS/KRAS (ratio of KD value with respect to HRAS to KD value with respect to KRAS) [2]: C (A compound having a KD ratio of 0.1 or more and less than 3 is denoted as C)
- Kd [3]: 0.17 nM

Structure (SMILES): CCCN1C(=O)CN(C)C(=O)CN(CC)C(=O)[C@H]([C@@H](C)CC)NC(=O)[C@H](CC(C)C)N(C)C(=O)C[C@@H](C(=O)N(C)C)N(C)C(=O)[C@H](C2CCCC2)N(C)C(=O)C2(CCCC2)NC(=O)[C@@H]2CC(F)(F)CN2C(=O)[C@H](CCc2ccc(C(F)(F)F)c(Cl)c2)NC(=O)CN(C)C(=O)[C@@H]1Cc1ccc(C(F)(F)F)cc1 [PP0425] ([NMeL]I[NEtG][Sar][NPrPhe(4-CF3)][Sar][hPhe(3-Cl-4-CF3)][Pro(4,4-F2)][Ac5c][NMeGly(cPent)][NMeD]-NMe2; lactam N-11)
- NRAS/KRAS (ratio of KD value with respect to NRAS to KD value with respect to KRAS) [1]: B (a compound having 3 or more and less than 10 is denoted as B)
- HRAS/KRAS (ratio of KD value with respect to HRAS to KD value with respect to KRAS) [2]: C (A compound having a KD ratio of 0.1 or more and less than 3 is denoted as C)
- Kd [3]: 0.099 nM

Structure (SMILES): CCCN1C(=O)CN(C)C(=O)CN(CC)C(=O)[C@H]([C@@H](C)CC)NC(=O)[C@H](CC(C)C)N(C)C(=O)C[C@@H](C(=O)N(C)C)N(C)C(=O)[C@H](C2CCCC2)N(C)C(=O)C2(CCC2)NC(=O)[C@@H]2CC(F)(F)CN2C(=O)[C@H](CCc2ccc(C(F)(F)F)c(Cl)c2)NC(=O)CN(C)C(=O)[C@@H]1Cc1ccc(C(F)(F)F)cc1 [PP0426] ([NMeL]I[NEtG][Sar][NPrPhe(4-CF3)][Sar][hPhe(3-Cl-4-CF3)][Pro(4,4-F2)][Ac4c][NMeGly(cPent)][NMeD]-NMe2; lactam N-11)
- NRAS/KRAS (ratio of KD value with respect to NRAS to KD value with respect to KRAS) [1]: C (A compound having a KD ratio of 0.1 or more and less than 3 is denoted as C)
- HRAS/KRAS (ratio of KD value with respect to HRAS to KD value with respect to KRAS) [2]: C (A compound having a KD ratio of 0.1 or more and less than 3 is denoted as C)
- Kd [3]: 0.12 nM
